For series [1], the system named is seizures in Dravet Syndrome patients. In words: Long-term fenfluramine and valproate treatment of Dravet Syndrome patients (Ceulemans et al. data). Format: in vivo, human. The source says:
The following table provides results based on the data presented in Ceulemans et al., Epilepsia (2012) 53(7):1131-1139.

Series [2] relates to heart valve. In words: Echocardiography monitoring for heart valve defects in subjects treated with fenfluramine. It counts as in vivo, human. From the text:
The subjects treated with fenfluramine were monitored using echocardiography for possible heart valve defects.

Series [3] concerns self-induced photosensitive seizures. The settings on record: cited from earlier work.
Series [4] deals with refractory epilepsy. Conditions: children with refractory epilepsy; dose of 0.5 to 1 mg/kg/day; cited from earlier work.
Series [5] relates to seizures in Dravet Syndrome patients. The settings on record: Combined STICLO-France and Italy; stiripentol and either valproate or clobazam; two months; cited from earlier work.
Setting [6] is: fenfluramine and valproate, average daily dose 0.34 mg/kg/day for between 1 and 22 years, 0.34 mg/kg/day.

`CCNC(C)Cc1cccc(C(F)(F)F)c1` (stereo not drawn) [Fenfluramine, 3-trifluoromethyl-N-ethylamphetamine]: the “Types of seizures reduced” value in series [1] (Dravet Syndrome patients, not only photosensitive or self-induced seizures) was “effectively reduced the incidence of all types of seizures”. Besides, in series [1] (setting [6]), the “>50% Reduction in Seizures (responders)” value came out at 75% and the “Seizure-free Patients” value came to 66.6%. Also, in series [2], the “Heart valve defects by echocardiography” value is listed as “No clinically relevant defects were identified”. Besides, the “Response of self-induced photosensitive seizures” value in series [3] (four cases, Aicardi and Gastaut) was “responded to treatment”. Also, the “Effect on pattern sensitivity-induced seizures resistant to anticonvulsive treatment” value in series [3] (one child, Clemens 1988) is listed as “successfully terminated these self-induced seizures”. The “Effect on number of seizures” value in series [4] was “reduction in the number of seizures”.
For the molecule `CC(C)(C)C(O)/C=C/c1ccc2c(c1)OCO2` (stereo not drawn) [Stiripentol], in series [5], the “Responders - >50% Reduction in the Number of Seizures” value is 69.7% and the “Seizure Free Patients” value is given as 38.7%.

Values taken from US9549909B2, “Method for the treatment of dravet syndrome” (KATHOLIEKE UNIVERSITEIT LEUVEN, priority 2013, dated 2017).
